# Results as given in patent US6267972A, “Cosmetic/pharmaceutical compositions comprising β-adrenergic agonists/substance P antagonists” (Societe L'Oreal S.A., priority 1995, dated 2001).
# Counter-ions that a name gives are not always drawn.
# Legend:
# substance P = assay: In vivo functional test, neurogenic inflammation model: antidromic stimulation of the saphenous nerve, Evans blue tissular extravasation
# Text: The test entailed creating a neurogenic inflammation by the antidromic stimulation of the saphenous nerve in the anaesthetized animal. This nerve innervates the cutaneous regions of the hind paws. The stimulation causes the release from the nerve endings of substance P, which is partially responsible for the neurogenic inflammation. The neurogenic inflammation was quantified by measuring the tissular permeability with Evans blue, a marker for the tissular extravasation of plasma albumin which occurs during inflammation. This reference model was used in the in vivo search for substance P antagonists. […] Dose Effect of Salbutamol in the Antidromic Stimulation Model Presented in Example 1
# sensitive skins = assay: Test with capsaicin: topical application of capsaicin cream, appearance of subjective signs; type: in vivo, human; conditions: 0.05 ml cream with 0.075% capsaicin on approx. 4 cm^2 of skin; subjects with sensitive skins
# Method: In order to determine if a skin is sensitive or not, the assignee hereof has also developed a test.
# The test with capsaicin entails topically applying,. to approximately 4 cm^2 of skin, 0.05 ml of a cream comprising 0.075% of capsaicin and in noting the appearance of subjective signs caused by this application, such as smarting, burning sensations and itching.
# [1] = 1 μmol, Table I, mean of 8 experiments, p < 0.001
compound,measurement,setting,value
Spantide II,% of inhibition,"substance P; 30 nmol, Table I, mean of 8 experiments, p < 0.01",59%
same,% of inhibition,"substance P; Table II, dose 30 nmol, p < 0.01",67%
CC(C)(C)NCC(O)COc1cccc2[nH]c(=O)[nH]c12 (centres unmarked) [CGP12177.HCl],% of inhibition,substance P; [1],77%
same,Concentration (μg/ml of Evans blue),"substance P; 1 μmol, mean of 8 experiments, expressed as Evans blue, n.d.: not detected, control 5.98 ± 0.65",1.37 ± 0.32 µg/mL
CC(CCc1ccccc1)NC(C)C(O)c1ccc(O)cc1 (centres unmarked) [Nylidrin.HCl],% of inhibition,substance P; [1],95%
COc1cc(CNC(=O)CCCC/C=C/C(C)C)ccc1O [capsaicin],erythema following subjective signs,sensitive skins,followed by the appearance of an erythema
CC(C)NCC(O)c1ccc(O)c(O)c1 (centres unmarked) [Isoproterenol],% of inhibition,substance P; [1],100%
CC(C)(C)NCC(O)c1ccc(O)c(CO)c1 (centres unmarked) [Salbutamol],% of inhibition,substance P; [1],100%
same,"activity with respect to the release of substance P, dose dependence",substance P; 0.1 to 100 nmol,dose dependent
same,% of inhibition,"substance P; Table II, dose 0.1 nmol, n.s. (not significant)",17%
same,% of inhibition,"substance P; Table II, dose 1 nmol, p < 0.05",65%
same,% of inhibition,"substance P; Table II, dose 10 nmol, p < 0.01",80%
same,% of inhibition,"substance P; Table II, dose 100 nmol, p < 0.01",100%
same,"activity relative to that of the reference molecule, Spantide II",substance P; antidromic stimulation model,approximately 30 times
